Where a name gives a salt, the structure may show the parent alone.

A word on the Kd: it is the equilibrium constant for the complex coming apart. Higher therefore signals a looser complex. For orientation: stoichiometry N means the number of molecules, sites or subunits per partner or assembly.

One data set concerns the target T1, LYCHOS (Homo sapiens, UniProt Q7Z3F1).
T1 sequence (Q7Z3F1 1-870): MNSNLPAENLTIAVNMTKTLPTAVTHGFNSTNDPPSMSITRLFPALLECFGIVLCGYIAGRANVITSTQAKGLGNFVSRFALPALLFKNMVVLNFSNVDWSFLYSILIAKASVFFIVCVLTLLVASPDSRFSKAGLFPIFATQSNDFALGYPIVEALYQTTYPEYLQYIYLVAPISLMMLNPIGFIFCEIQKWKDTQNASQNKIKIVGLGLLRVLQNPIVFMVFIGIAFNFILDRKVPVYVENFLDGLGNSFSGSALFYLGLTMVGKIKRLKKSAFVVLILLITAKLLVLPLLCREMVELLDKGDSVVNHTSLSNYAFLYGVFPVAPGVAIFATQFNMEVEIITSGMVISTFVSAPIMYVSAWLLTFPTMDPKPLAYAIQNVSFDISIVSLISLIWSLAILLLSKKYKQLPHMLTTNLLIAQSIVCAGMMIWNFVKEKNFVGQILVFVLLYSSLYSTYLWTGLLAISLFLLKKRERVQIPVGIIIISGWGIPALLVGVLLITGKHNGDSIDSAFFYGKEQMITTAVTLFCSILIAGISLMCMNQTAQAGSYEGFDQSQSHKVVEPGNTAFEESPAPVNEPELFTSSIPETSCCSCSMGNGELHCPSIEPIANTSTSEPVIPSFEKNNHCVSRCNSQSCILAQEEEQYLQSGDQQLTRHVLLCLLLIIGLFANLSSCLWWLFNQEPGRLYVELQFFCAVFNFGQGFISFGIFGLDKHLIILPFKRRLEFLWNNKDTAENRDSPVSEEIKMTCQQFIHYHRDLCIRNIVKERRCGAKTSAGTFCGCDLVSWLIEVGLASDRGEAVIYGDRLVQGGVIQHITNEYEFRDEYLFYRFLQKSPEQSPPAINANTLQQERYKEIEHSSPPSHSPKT
Put plainly: SPR Kd and cryo-EM structure of the complex. The format is binding.

The data set “cryo-EM structure” concerns the molecule itself. Put plainly: cryo-EM structure.

`O=S(=O)(O)Oc1c[nH]c2ccccc12` [IS, indoxyl sulfate]: the Kd at LYCHOS is ~150 µM.

B1: human LYCHOS (lysosomal cholesterol signaling protein), C-terminal FLAG and 10×His tags (natural protein, UniProt Q7Z3F1 1-870, looked up)
chain: T1 sequence (Q7Z3F1 1-870)
modifications: N-acetylglucosamine linked to Asn309
Regarding B1, the “stoichiometry N” value in “cryo-EM structure” worked out at 2.

The values above are taken from PMC11928621 (Nature Communications, 2025).
